Assay results as given in US10058587B2, “Peptide composition for cancer treatment by inhibiting TRPV6 calcium channel activity” (priority 2008, dated 2018).
Where no end group is shown, it is not given here.

Columns and labels:
mealworm larvae = test: Mealworm larva paralytic bioassay; type: in vivo
[1] = test system: OVCAR3 ovarian cancer cell line; test: Induction of apoptosis (APO-ONE caspase 3/7) and cell viability (CellTiter Blue); type: cell-based, human; parameters: key to Decline in cell viability: decreased (+); or not (−); settings: for apoptosis (treatment:control ratio) compared with CAT cocktail: CAT = 10 uM Paclitaxel, 20 mM carboplatin
Experimental: OVCAR-3 was cultured in RPMI 1640 medium supplemented with 1.0 mM sodium pyruvate, 0.01 mg/mL insulin and 10% (v/v) fetal bovine serum.
(§1) The levels of apoptotic induction and cell viability were determined by multiplexing the measurements for single samples. CellTiter Blue and APO-ONE assay systems from Promega allows the determination of cell viability correlated to cell number, and induction of apoptosis. This protocol uses a fluorgenic peptide that contains a peptide recognition-sequence for caspase 3 and caspase 7, […] proteolytic enzymes of the apoptosis cascade. The CellTiter Blue reagent was added to wells in a 96-well plate containing cells under test, immediately after addition of peptide solution or vehicle. About 5000 cells were plated into the wells the day before. At the chosen time (Day 1, Day 2 etc.) the fluorescence was measured at 590 nm (emission) after excitation at 560 nm. The caspase 3/7 activity was measured (485 nm Ex/527 nm Em) in the same wells after adding 120 uL of the Apo-ONE reagent, freeze fracturing at −80° C. for 1 hr, and incubating for 1 hr at room temperature.
(§2) For this work, the concentrations of SorC13 and SorC27 used were 0 uM, 1 uM, 10 uM and 100 uM. The experiments extended over a 5 to 7 day period. All measurements were done in quadruplicate with both a blank (no cells) and control (vehicle, no peptide) used to correct the test measurements. The time-response data, and the dose-response data were plotted as means±standard error of the mean. Any statistical comparisons were done with the Student's t-test or by ANOVA analysis over the dose course. The level of statistical significance was considered to be the 95% confidence interval (i.e., p≤0.05).
(§3) To compare the effect of the two SorC-peptides against the gold-standard treatment for ovarian cancers SorC13 or SorC27 was compared to treatment with a carboplatin and taxol (CAT) cocktail (10 uM Paclitaxel, 20 mM carboplatin) using the APO-ONE assay, which measures the combined activities of caspase 3 and caspase 7. Because of the mixed treatment (CAT), the effects were compared in terms of the ratio of treatment:control. If no effect was noted then the ratio=1. Comparisons of the treatment:control ratios were examined with the Student's t-test at a confidence level of 95%. Ratios of larger than a value of unity indicated a positive effect. The effects are illustrated in FIG. 5.

K-562 = test: Apoptosis and cell viability in CML cell line (Example 12); type: cell-based, human; settings: 0, 10 and 100 uM, 5 to 7 days
Experimental: (§4) For this work, the concentrations of SorC13 and SorC27 used are 0 uM, 10 uM and 100 uM. The experiments extend over a 5 to 7 day period. All measurements are done in quadruplicate with both a blank (no cells) and control (vehicle, no peptide) used to correct the test measurements. The time-response data, and the dose-response data are plotted as means±standard error of the mean.
The cell line K-562 (from ATCC CCL-243) is grown under the recommended conditions and in culture media recommended by ATCC. The cell lines were cultured under sterile conditions at 37° C., in a humidified 5% CO2 atmosphere.
Induction of apoptosis and attendant decrease is observed in cell viability in the cancer cell lines. From the large increases in the activities of the caspase 3/7 activity, it is clear that there is a time dependent effect and a dose dependent effect on the induction of apoptosis.

[2] = test system: MDA-MB-468 (MB 468) breast cancer cell line; test: Induction of apoptosis (APO-ONE caspase 3/7) and cell viability (CellTiter Blue); type: cell-based, human
Experimental: MCF-7, MDA-MB-231, MDA-MB-415, MDA-MB-468 were grown in DMEM modified with 10% (v/v) fetal bovine serum, 2 mM L-glutamine and 50 ug/mL each of penicillin and streptomycin.
as §1, §2

[3] = test system: OV90 ovarian cancer cell line; test: as above; type: cell-based, human; parameters: key to Decline in cell viability: decreased (+); or not (−)
Experimental: OV-90 was cultured in a 1:1 mixture of MCDB 105 medium and Medium 199 supplemented with 15% (v/v) fetal bovine serum.
as §1, §2, §3

[4] = test system: Human Non-Small Cell Lung Carcinoma (NSCLC) lines H1437 and H2087; test: Apoptosis (APO-ONE) and cell viability (CellTiter Blue) in NSCLC lines (Example 9); type: cell-based; settings: 10 and 100 uM
Experimental: The effects of the C-peptides on metastasizing human lung carcinoma cells are studied. […] In vitro studies employing SorC13 and SorC27 are carried out in metastatic lymph node-derived cell lines to determine their effect on Human Non-Small Cell Lung Carcinoma (NSCLC) lines H1437 (from ATCC CRL-5872) and H2087 (from ATCC CRL-5922). Both of these cell lines are adenocarcinomas derived from the metastaic site (lymph node) and from a stage 1 NSCLC lung cancer. Major lymphatics of interest which are usefully treated with peptides of the invention include superfacial cervical nodes, axillary nodes, brachial nodes, mesenteric nodes and inguinal nodes.
For the study, the cell lines are grown under the recommended conditions and in culture media recommended by ATCC. The cell lines are cultured under sterile conditions at 37° C., in a humidified 5% CO2 atmosphere.
Both the APO-ONE assay and the CellTiter Blue (Promega) are used on the cell lines to evaluate apoptosis and cell viability, respectively.

Daudi = test: Apoptosis and cell viability in Burkitt's lymphoma cell line (Example 11); type: cell-based, human; settings: 0, 10 and 100 uM, 5 to 7 days
Experimental: as §4
The cell line Daudi (from ATCC CCL-213) is grown under the recommended conditions and in culture media recommended by ATCC. The cell lines were cultured under sterile conditions at 37° C., in a humidified 5% CO2 atmosphere.
Induction of apoptosis and attendant decrease is observed in cell viability in the cancer cell lines. From the large increases in the activities of the caspase3/7 activity, it is clear that there is a time dependent effect and a dose dependent effect on the induction of apoptosis.

EGKLSSNDTEGGLCKEFLHPSKVDLPR [SorC27]
Physiol. effects in vivo (mealworm larvae); 5 mg/kg (mealworm larvae): Not paralytic
apoptosis (treatment:control ratio) compared with CAT cocktail [1]: produced apoptosis sooner and more intensely than the CAT cocktail
Apoptosis Index (1 = no effect) ([1]; Day 3, SorC27 10 uM): 2.2
Apoptosis Index (1 = no effect) ([1]; Day 3, SorC27 100 uM): 2.2
Apoptosis Index (1 = no effect) ([1]; Day 5, SorC27 10 uM): 4.1
Apoptosis Index (1 = no effect) ([1]; Day 5, SorC27 100 uM): 6.3
Decline in cell viability ([1]; SorC27): +
induction of apoptosis and cell viability (K-562): induces apoptosis and decreases cell viability
Apoptosis Index (1 = no effect) ([2]; Day 3, SorC27 10 μM): 1.1
Apoptosis Index (1 = no effect) ([2]; Day 3, SorC27 100 μM): 1.2
Apoptosis Index (1 = no effect) ([3]; Day 2, SorC27 100 uM): 1.8
Apoptosis Index (1 = no effect) ([3]; Day 3, SorC27 1 uM): 1.2
Apoptosis Index (1 = no effect) ([3]; Day 3, SorC27 10 uM): 1.9
Apoptosis Index (1 = no effect) ([3]; Day 3, SorC27 100 uM): 1.9
Decline in cell viability ([3]; SorC27): +
induction of apoptosis [4]: induce apoptosis
induction of apoptosis and cell viability (Daudi): induces apoptosis and decreases cell viability

KEFLHPSKVDLPR [SorC13, KEFLHPSKVDLPR]
Physiol. effects in vivo (mealworm larvae); 5 mg/kg (mealworm larvae): Not paralytic
apoptosis (treatment:control ratio) compared with CAT cocktail [1]: produced earlier and more intense apoptosis cascade than the CAT cocktail
Apoptosis Index (1 = no effect) ([1]; Day 4, SorC13 100 uM): 1.4
Apoptosis Index (1 = no effect) ([1]; Day 5, SorC13 100 uM): 1.7
Decline in cell viability ([1]; Day 5, SorC13 100 uM): +
induction of apoptosis and cell viability (K-562): induces apoptosis and decreases cell viability
Apoptosis Index (1 = no effect) ([2]; SorC13 1 uM): 2.7
Apoptosis Index (1 = no effect) ([2]; SorC13 10 uM): 3.3
Apoptosis Index (1 = no effect) ([2]; SorC13 100 uM): 2.7
apoptosis (treatment:control ratio) compared with CAT cocktail ([3]; CAT = 10 uM Paclitaxel, 20 mM carboplatin): produced earlier and more intense apoptosis cascade than the CAT cocktail
induction of apoptosis [4]: induce apoptosis
induction of apoptosis and cell viability (Daudi): induces apoptosis and decreases cell viability
